In ChEMBL document CHEMBL5107993, “Design, synthesis and in vitro biological evaluation of marine phidianidine derivatives as potential anti-inflammatory agents” (Bioorg Med Chem, 2022):
pIC50: −log10 of the molar value. Each block holds one compound with its values, some of them ahead of it. Activity calls are given as the source filed them. The calls are words filed in the database; no cut-off is given here.

Legend:
EL4 [1] = assay: Inhibition of IL-17F mRNA expression in PMA/ionomycin-stimulated mouse EL4 cells at 10 uM measured by qRT-PCR method; type: functional, cell-based
[2] = Inhibition of IL-17A production in PMA/ionomycin-stimulated mouse EL4 cells at 10 uM measured by ELISA relative to control; type: functional
EL4 [3] = assay: Inhibition of IL-17A production in PMA/ionomycin-stimulated mouse EL4 cells at 2 to 10 uM measured […]; type: functional, cell-based; details: dose 2-10 µM, DDE = dose-dependent effect
EL4 [4] = assay: Inhibition of IL-17A production in PMA/ionomycin-stimulated mouse EL4 cells at 2 to 10 uM measured by ELISA; type: functional, cell-based; details: dose 2-10 µM, DDE = dose-dependent effect
EL4 [5] = assay: Inhibition of IL-17A mRNA expression in PMA/ionomycin-stimulated mouse EL4 cells at 10 uM measured by qRT-PCR method; type: functional, cell-based
[6] = Inhibition of IL-17A production in PMA/ionomycin-stimulated mouse EL4 cells measured by ELISA; type: functional, cell-based
[7] = Inhibition of IL-17A production in PMA/ionomycin-stimulated mouse EL4 cells at 20 uM measured by ELISA relative to control; type: functional
Th17 [8] = assay: Inhibition of human Th17 cells differentiation in CD4+ve T cells assessed as decrease in IL-17A mRNA expression at 2 uM measured by qRT-PCR method; type: functional, cell-based
Th17 [9] = assay: Inhibition of human Th17 cells differentiation in CD4+ve T cells assessed as decrease in IL-17A production at 2 uM measured by ELISA; type: functional, cell-based
EL4 [10] = assay: Downregulation ofp-STAT3 (Y705) expression in PMA/ionomycin-stimulated mouse EL4 cells measured by western blot analysis; type: functional, cell-based

- pIC50 [6]: 5.28
SMILES: COc1cc(-c2nc(-c3ccc(NCCN(C)C)cc3)no2)cc(OC)c1OC
- inhibition (EL4 [1]): Active
- inhibition at 10 µM [2]: 83.5%
- inhibition (EL4 [3]): Dde
- inhibition (EL4 [4]): Dde
- inhibition (EL4 [5]): Active

SMILES: CN(C)CCNCc1nc(Cc2c[nH]c3ccccc23)no1
- inhibition at 10 µM [2]: 6.1%

SMILES: Nc1ccc(-c2noc(Cc3c[nH]c4ccccc34)n2)cc1
- inhibition at 10 µM [2]: 6.4%

SMILES: CN(C)CCNc1ccc(-c2noc(C34CC5CC(CC(C5)C3)C4)n2)cc1
- inhibition at 10 µM [2]: 39.6%

SMILES: NC12CCC(c3nc(Cc4c[nH]c5ccccc45)no3)(CC1)C2
- inhibition at 10 µM [2]: 3%

SMILES: CN(C)CCNc1ccc(-c2noc(-c3ccccc3)n2)cc1
- inhibition at 20 µM [7]: 22.9%

SMILES: CC(=O)NCCNc1ccc(-c2noc(Cc3c[nH]c4ccccc34)n2)cc1
- inhibition at 10 µM [2]: 31%

SMILES: CS(=O)(=O)c1ccc(CNC23CCC(c4nc(Cc5c[nH]c6ccccc56)no4)(CC2)C3)cc1
- inhibition at 10 µM [2]: 8.1%

SMILES: O=S(=O)(c1ccccc1)N(CC(F)(F)F)c1ccc(C(O)(C(F)(F)F)C(F)(F)F)cc1 [T091317]
- inhibition at 20 µM [7]: 52.7%

SMILES: NCCNc1ccc(-c2noc(Cc3c[nH]c4ccccc34)n2)cc1
- inhibition at 10 µM [2]: 21.5%

SMILES: CS(=O)(=O)c1ccc(CNc2ccc(-c3noc(Cc4c[nH]c5ccccc45)n3)cc2)cc1
- inhibition at 10 µM [2]: 10.3%

SMILES: N=C(N)NCCNc1ccc(-c2noc(Cc3c[nH]c4ccccc34)n2)cc1
- inhibition at 10 µM [2]: 15.2%

SMILES: c1ccc2c(Cc3noc(CNC4CCC4)n3)c[nH]c2c1
- inhibition at 10 µM [2]: 5.8%

- pIC50 [6]: 5.11
SMILES: CN(C)CCNc1ccc(-c2noc(Cc3c[nH]c4ccccc34)n2)cc1
- inhibition (EL4 [1]): Active
- inhibition (Th17 [8]): Active
- inhibition at 10 µM [2]: 78.7%
- inhibition (EL4 [3]): Dde
- inhibition (Th17 [9]): Active
- Activity (EL4 [10]): Active
- inhibition (EL4 [4]): Dde
- inhibition (EL4 [5]): Active
